# Assay results taken from paper PMC4337230 (The journal of physical chemistry. B, 2010).
# Target: T1, Lysine 2,3-aminomutase (LAM) (Clostridium subterminale, UniProt Q9XBQ8)
# T1 sequence (Q9XBQ8 1-416): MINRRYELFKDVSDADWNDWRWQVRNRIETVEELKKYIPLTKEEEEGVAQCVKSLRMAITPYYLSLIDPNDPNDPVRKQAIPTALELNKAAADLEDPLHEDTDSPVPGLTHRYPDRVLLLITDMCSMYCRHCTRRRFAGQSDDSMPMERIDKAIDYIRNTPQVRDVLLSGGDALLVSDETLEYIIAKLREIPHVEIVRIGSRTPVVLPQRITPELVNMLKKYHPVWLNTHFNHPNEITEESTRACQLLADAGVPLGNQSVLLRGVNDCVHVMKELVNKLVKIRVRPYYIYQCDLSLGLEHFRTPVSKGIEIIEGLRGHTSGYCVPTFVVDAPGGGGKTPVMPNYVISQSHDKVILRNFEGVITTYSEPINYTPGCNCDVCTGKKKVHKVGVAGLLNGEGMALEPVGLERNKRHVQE
# Assay: activation of L-alanine […],3-aminomutation, PITC-HPLC
# Type: biochemical
# Conditions: 200000 µM; activator; 0.2 M L-alanine, 0.16 mM SAM, pH 8.0, 37 °C, anaerobic
smiles,measurement,value
CN [methylamine],fold acceleration at 0.2 M,27 fold
